Data: paper PMC3240648, “Inhibition of Influenza A Virus (H1N1) Fusion by Benzenesulfonamide Derivatives Targeting Viral Hemagglutinin” (PLoS ONE, 2011)
“Also recorded” adds a separate entry of the source.

Tests used:
influenza virus [1] = test: microbe, parasite or virus in culture; format: cell-based; conditions: unidentified influenza virus, read-out: in vitro EC90
[2] = target: Bromelain-cleaved HA (BHA) (Influenza A virus (H1N1), UniProt Q0HD60); format: biochemical
[3] = test system: Influenza A/New Jersey/8/76 (H1N1); test: microbe, parasite or virus in culture; format: cell-based; conditions: H1N1, MDCK, 72 h, read-out: CPE (EC50) A/New Jersey/8/76 (H1N1)
[4] = test system: Influenza A/Hongkong/8/68 (H3N2); test: microbe, parasite or virus in culture; format: cell-based, Influenza A virus; conditions: for EC50: Influenza A virus, H3N2, MDCK, 72 h, read-out: CPE (EC50) A/Hongkong/8/68 (H3N2)
[5] = test system: Influenza A/Human/Hubei/3/2005 (H3N2); test: microbe, parasite or virus in culture; format: cell-based, Influenza A virus; conditions: for EC50: Influenza A virus, H3N2, MDCK, 72 h, read-out: CPE (EC50) A/Human/Hubei/3/2005 (H3N2)
[6] = test system: Influenza A/Mal/302/54 (H1N1); test: microbe, parasite or virus in culture; format: cell-based; conditions: H1N1, MDCK, 72 h, read-out: CPE (EC50) A/Mal/302/54 (H1N1)
[7] = test system: Influenza A/PR/8/34 (H1N1); test: microbe, parasite or virus in culture; format: cell-based; conditions: MDCK, 72 h, read-out: CPE (EC50) A/PR/8/34 (H1N1)
[8] = mouse, in vivo
in vivo = conditions: male, CD-1, mouse
[9] = Repeated oral dosing of mice without virus challenge (survival, body weight); format: in vivo; conditions: 200 mg/kg and 50 mg/kg orally twice a day for 7 days, monitored 14 days
Text: Survival of the treated animals and body weight were monitored for 14 days starting from the first day of compound dosing.

influenza virus [10] = format: cell-based; conditions: for reduction of virus yield: 3.16 µM, 48 hours, MDCK, TCID50
[11] = target: hemagglutinin of influenza virus (Influenza A virus (H1N1), UniProt Q0HD60); format: cell-based; conditions: for effect on hemolysis (negative controls): data not shown
[12] = test system: Influenza A/Weiss/43 (H1N1); format: cell-based, Influenza A virus
[13] = test system: Influenza A/Weiss/43 (H1N1); format: cell-based, Influenza A virus; remark: listed apart in the source
[14] = test system: viral hemagglutinin binding to sialic acid receptors of chicken erythrocytes; format: cell-based, influenza virus; conditions: 10 µM, regardless of viral dilution; data not shown

Bromelain-cleaved HA (BHA), sequence (Q0HD60 18-343, added parts left off): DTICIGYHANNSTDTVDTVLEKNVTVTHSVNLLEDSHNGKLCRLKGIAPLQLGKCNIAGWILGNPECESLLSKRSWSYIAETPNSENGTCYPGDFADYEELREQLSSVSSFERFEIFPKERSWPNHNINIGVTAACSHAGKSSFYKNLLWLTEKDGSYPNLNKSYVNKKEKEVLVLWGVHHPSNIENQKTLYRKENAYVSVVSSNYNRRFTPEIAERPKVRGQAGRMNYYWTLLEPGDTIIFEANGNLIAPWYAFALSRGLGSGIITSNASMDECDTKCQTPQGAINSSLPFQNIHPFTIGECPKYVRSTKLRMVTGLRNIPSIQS
hemagglutinin of influenza virus, sequence (Q0HD60 18-343, added parts left off): as above

| Structure (SMILES) | BHA trypsin sensitivity [2] | protection of BHA from trypsin digestion after acidification [2] | EC50 [4] | EC50 [5] | EC50 [6] | EC50 [7] | dynamics of progeny virus production (influenza virus [10]) | effect on hemolysis (negative controls) [11] | reduction of virus yield (influenza virus [10]) | other results |
| --- | --- | --- | --- | --- | --- | --- | --- | --- | --- | --- |
| CC1(C)C[C@H](O)C[C@](C)(CNc2ccc(Cl)c(S(N)(=O)=O)c2)C1 [RO5487624] | + | completely protected HA from trypsin digestion | > 100000 nM | > 100000 nM | 450 nM | 210 nM | – | – | – | EC90 (influenza virus [1]): 300 nM; EC50 [3]: 90 nM; C max and AUC in plasma versus oral dose [8]: increased in a dose-dependent manner; bioavailability (in vivo): > 70%; AUC(0-inf) (in vivo; iv, 2 mg/kg): 629 ng·h/mL; AUC(0-t) (in vivo; iv, 2 mg/kg): 587 ng·h/mL; animal death and body weight changes [9]: did not find any animal death and statistically significant body weight changes |
| NC(=O)c1ncn([C@@H]2O[C@H](CO)[C@@H](O)[C@H]2O)n1 [Ribavirin] | – | failed to show a protective effect on BHA | – | – | – | – | became weaker | did not show any effect on hemolysis | – | inhibition of progeny virus production (influenza virus [10]): strongly inhibited progeny virus production |
| CC1(C)CC(O)CC(C)(CNc2cccc(S(N)(=O)=O)c2)C1 (stereo not shown) [RO5464466, 3-[(5-Hydroxy-1,3,3-trimethyl-cyclohexylmethyl)-amino]-benzenesulfonamide] | + | completely protected HA from trypsin digestion | > 100000 nM | > 100000 nM | 660 nM | 580 nM | strong inhibition at all time points | – | 8 log | protection of BHA from trypsin-caused degradation at different pH [2]: effectively protected BHA from trypsin-caused degradation throughout the tested pH values, except pH 4.5; inhibitory effect on replication of A/Hongkong/8/68 (H3N2) in CPE assay [4]: failed to exhibit an apparent inhibitory effect; effect on virus replication in one cycle [12]: completely blocks virus replication; inhibitory effect on replication of A/Human/Hubei/3/2005 (H3N2) in CPE assay [5]: failed to exhibit an apparent inhibitory effect; plaque formation [13]: completely protected cell monolayer against cell death (no visible plaques); also recorded: still inhibited virus infection; inhibitory effect on hemagglutination [14]: did not have an inhibitory effect on hemagglutination; HA-mediated hemolysis ([11]; 10 µM, pH 5.03, 5.05, 5.1 and 5.2): completely blocked |
| CCOC(=O)C1=C[C@@H](OC(CC)CC)[C@H](NC(C)=O)[C@@H](N)C1 [Oseltamivir] | – | – | – | – | – | – | – | did not show any effect on hemolysis | 5 log | – |
